Measurements: the NIST ThermoML archive (doi:10.1021/je900537y)
Numbers after ± are expanded uncertainties.

Experiment: molar heat capacity at constant pressure
Details: 101.33 kPa, Liquid, Small sample (50 mg) DSC

NCCCCCCCN [1,7-diaminoheptane]
Details | molar heat capacity at constant pressure [J/K/mol]
302.15 K | 332.76 ± 5.2
303.65 K | 332.93 ± 5.2
305.15 K | 333.11 ± 5.2
306.65 K | 333.29 ± 5.2
308.15 K | 333.48 ± 5.2
309.65 K | 333.67 ± 5.2
311.15 K | 333.86 ± 5.2
312.65 K | 334.06 ± 5.2
314.15 K | 334.27 ± 5.2
315.65 K | 334.48 ± 5.2
317.15 K | 334.7 ± 5.2
318.65 K | 334.92 ± 5.2
320.15 K | 335.15 ± 5.2
321.65 K | 335.38 ± 5.2
323.15 K | 335.62 ± 5.2
324.65 K | 335.87 ± 5.2
326.15 K | 336.12 ± 5.2
327.65 K | 336.38 ± 5.2
329.15 K | 336.64 ± 5.2
330.65 K | 336.91 ± 5.2
332.15 K | 337.18 ± 5.2
333.65 K | 337.47 ± 5.2
335.15 K | 337.76 ± 5.2
336.65 K | 338.05 ± 5.2
338.15 K | 338.35 ± 5.2
339.65 K | 338.66 ± 5.2
341.15 K | 338.98 ± 5.2
342.65 K | 339.3 ± 5.3
344.15 K | 339.63 ± 5.3
345.65 K | 339.97 ± 5.3
347.15 K | 340.31 ± 5.3
348.65 K | 340.66 ± 5.3
350.15 K | 341.02 ± 5.3
351.65 K | 341.39 ± 5.3
353.15 K | 341.76 ± 5.3

NCCN [ethane-1,2-diamine]
Details | molar heat capacity at constant pressure [J/K/mol]
293.15 K | 172.34 ± 2.7
294.65 K | 172.43 ± 2.7
296.15 K | 172.53 ± 2.7
297.65 K | 172.63 ± 2.7
298.15 K | 172.66 ± 2.7
299.15 K | 172.73 ± 2.7
300.65 K | 172.84 ± 2.7
302.15 K | 172.95 ± 2.7
303.65 K | 173.06 ± 2.7
305.15 K | 173.17 ± 2.7
306.65 K | 173.29 ± 2.7
308.15 K | 173.41 ± 2.7
309.65 K | 173.53 ± 2.7
311.15 K | 173.66 ± 2.7
312.65 K | 173.79 ± 2.7
314.15 K | 173.92 ± 2.7
315.65 K | 174.05 ± 2.7
317.15 K | 174.18 ± 2.7
318.65 K | 174.31 ± 2.7
320.15 K | 174.45 ± 2.7
321.65 K | 174.59 ± 2.7
323.15 K | 174.72 ± 2.7
324.65 K | 174.86 ± 2.7
326.15 K | 175 ± 2.7
327.65 K | 175.15 ± 2.7
329.15 K | 175.29 ± 2.7
330.65 K | 175.43 ± 2.7
332.15 K | 175.58 ± 2.7
333.65 K | 175.72 ± 2.7
335.15 K | 175.86 ± 2.7
336.65 K | 176.01 ± 2.7
338.15 K | 176.15 ± 2.7
339.65 K | 176.3 ± 2.7
341.15 K | 176.44 ± 2.7
342.65 K | 176.59 ± 2.7
344.15 K | 176.73 ± 2.7
345.65 K | 176.87 ± 2.7
347.15 K | 177.02 ± 2.7
348.65 K | 177.16 ± 2.7
350.15 K | 177.3 ± 2.8
351.65 K | 177.44 ± 2.8
353.15 K | 177.58 ± 2.8

NCCCCN [1,4-butanediamine]
Details | molar heat capacity at constant pressure [J/K/mol]
298.15 K | 236.33 ± 3.7
299.15 K | 236.45 ± 3.7
300.65 K | 236.61 ± 3.7
302.15 K | 236.77 ± 3.7
303.65 K | 236.94 ± 3.7
305.15 K | 237.09 ± 3.7
306.65 K | 237.25 ± 3.7
308.15 K | 237.41 ± 3.7
309.65 K | 237.56 ± 3.7
311.15 K | 237.72 ± 3.7
312.65 K | 237.87 ± 3.7
314.15 K | 238.03 ± 3.7
315.65 K | 238.18 ± 3.7
317.15 K | 238.34 ± 3.7
318.65 K | 238.49 ± 3.7
320.15 K | 238.65 ± 3.7
321.65 K | 238.81 ± 3.7
323.15 K | 238.97 ± 3.7
324.65 K | 239.13 ± 3.7
326.15 K | 239.29 ± 3.7
327.65 K | 239.46 ± 3.7
329.15 K | 239.63 ± 3.7
330.65 K | 239.8 ± 3.7
332.15 K | 239.98 ± 3.7
333.65 K | 240.15 ± 3.7
335.15 K | 240.34 ± 3.7
336.65 K | 240.52 ± 3.7
338.15 K | 240.71 ± 3.7
339.65 K | 240.91 ± 3.7
341.15 K | 241.11 ± 3.7
342.65 K | 241.32 ± 3.7
344.15 K | 241.53 ± 3.7
345.65 K | 241.74 ± 3.8
347.15 K | 241.97 ± 3.8
348.65 K | 242.2 ± 3.8
350.15 K | 242.43 ± 3.8
351.65 K | 242.68 ± 3.8
353.15 K | 242.93 ± 3.8

NCCCCCCN [1,6-hexanediamine]
Details | molar heat capacity at constant pressure [J/K/mol]
314.15 K | 301.08 ± 4.7
315.65 K | 301.25 ± 4.7
317.15 K | 301.42 ± 4.7
318.65 K | 301.59 ± 4.7
320.15 K | 301.77 ± 4.7
321.65 K | 301.95 ± 4.7
323.15 K | 302.14 ± 4.7
324.65 K | 302.33 ± 4.7
326.15 K | 302.53 ± 4.7
327.65 K | 302.74 ± 4.7
329.15 K | 302.95 ± 4.7
330.65 K | 303.17 ± 4.7
332.15 K | 303.4 ± 4.7
333.65 K | 303.64 ± 4.7
335.15 K | 303.88 ± 4.7
336.65 K | 304.13 ± 4.7
338.15 K | 304.4 ± 4.7
339.65 K | 304.67 ± 4.7
341.15 K | 304.95 ± 4.7
342.65 K | 305.25 ± 4.7
344.15 K | 305.55 ± 4.7
345.65 K | 305.87 ± 4.7
347.15 K | 306.2 ± 4.7
348.65 K | 306.54 ± 4.8
350.15 K | 306.89 ± 4.8
351.65 K | 307.26 ± 4.8
353.15 K | 307.64 ± 4.8

NCCCCCCCCCN [1,9-diaminononane]
Details | molar heat capacity at constant pressure [J/K/mol]
311.15 K | 398.93 ± 6.2
312.65 K | 399.04 ± 6.2
314.15 K | 399.17 ± 6.2
315.65 K | 399.32 ± 6.2
317.15 K | 399.47 ± 6.2
318.65 K | 399.64 ± 6.2
320.15 K | 399.82 ± 6.2
321.65 K | 400.02 ± 6.2
323.15 K | 400.22 ± 6.2
324.65 K | 400.44 ± 6.2
326.15 K | 400.67 ± 6.2
327.65 K | 400.92 ± 6.2
329.15 K | 401.17 ± 6.2
330.65 K | 401.44 ± 6.2
332.15 K | 401.72 ± 6.2
333.65 K | 402.02 ± 6.2
335.15 K | 402.32 ± 6.2
336.65 K | 402.64 ± 6.2
338.15 K | 402.97 ± 6.2
339.65 K | 403.32 ± 6.2
341.15 K | 403.67 ± 6.2
342.65 K | 404.04 ± 6.3
344.15 K | 404.43 ± 6.3
345.65 K | 404.82 ± 6.3
347.15 K | 405.23 ± 6.3
348.65 K | 405.65 ± 6.3
350.15 K | 406.08 ± 6.3
351.65 K | 406.52 ± 6.3
353.15 K | 406.98 ± 6.3

NCCCN [1,3-propanediamine]
Details | molar heat capacity at constant pressure [J/K/mol]
293.15 K | 203.05 ± 3.1
294.65 K | 203.21 ± 3.1
296.15 K | 203.37 ± 3.1
297.65 K | 203.53 ± 3.1
298.15 K | 203.59 ± 3.1
299.15 K | 203.7 ± 3.2
300.65 K | 203.86 ± 3.2
302.15 K | 204.03 ± 3.2
303.65 K | 204.19 ± 3.2
305.15 K | 204.36 ± 3.2
306.65 K | 204.53 ± 3.2
308.15 K | 204.7 ± 3.2
309.65 K | 204.87 ± 3.2
311.15 K | 205.04 ± 3.2
312.65 K | 205.21 ± 3.2
314.15 K | 205.38 ± 3.2
315.65 K | 205.56 ± 3.2
317.15 K | 205.73 ± 3.2
318.65 K | 205.91 ± 3.2
320.15 K | 206.08 ± 3.2
321.65 K | 206.26 ± 3.2
323.15 K | 206.43 ± 3.2
324.65 K | 206.61 ± 3.2
326.15 K | 206.79 ± 3.2
327.65 K | 206.96 ± 3.2
329.15 K | 207.14 ± 3.2
330.65 K | 207.32 ± 3.2
332.15 K | 207.5 ± 3.2
333.65 K | 207.67 ± 3.2
335.15 K | 207.85 ± 3.2
336.65 K | 208.03 ± 3.2
338.15 K | 208.2 ± 3.2
339.65 K | 208.38 ± 3.2
341.15 K | 208.56 ± 3.2
342.65 K | 208.73 ± 3.2
344.15 K | 208.91 ± 3.2
345.65 K | 209.08 ± 3.2
347.15 K | 209.26 ± 3.2
348.65 K | 209.43 ± 3.2
350.15 K | 209.6 ± 3.2
351.65 K | 209.78 ± 3.2
353.15 K | 209.95 ± 3.2
